The record followed here is patent US20240182456A1, “2-((4-((S)-2-(4-CHLORO-2-FLUOROPHENYL)-2-METHYLBENZO[D][1,3]DIOXOL-4-YL)PIPERIDIN-1-YL)METHYL)-1-(((S)-OXETAN-2-YL)METHYL)-1H-IMIDAZOLE DERIVATIVES AS ACTIVATORS OF THE GLP1 RECEPTOR FOR THE TREATMENT OF OBESITY” (Novartis AG, priority 2021, published 2024).

The assay deals with human GLP1R (Homo sapiens, UniProt P43220). Briefly: Human GLP1R DERET internalization assay. Type of assay: cell-based. The following applies: HEK293-SNAP-hGLP1R-GloSensor cells; for EC50: mean n=2; for Emax: relative to GLP1(7-36). Summed up:
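HEK293 cells stably expressing SNAP-tagged hGLP1R, labelled with SNAP-Lumi-Tb, then exposed at 37 °C to 3-fold compound dilutions (top 30 μM) with 25 μM fluorescein. Donor/acceptor TR-FRET ratio read every 30 min. EC50 and Emax from 4-parameter fits, normalised to the GLP1(7-36) EC100 (top 1 μM) and buffer-only EC0 wells.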

Bounds are passed on as bounds.

Broadly, the EC50 is the concentration needed to bring the measured effect to its halfway point. The low end stands for an effect from little substance, the high end for a need for much substance. By Emax is commonly meant the greatest response seen or fitted, relative to the assay's reference.

Chain of human GLP1R (P43220 24-463): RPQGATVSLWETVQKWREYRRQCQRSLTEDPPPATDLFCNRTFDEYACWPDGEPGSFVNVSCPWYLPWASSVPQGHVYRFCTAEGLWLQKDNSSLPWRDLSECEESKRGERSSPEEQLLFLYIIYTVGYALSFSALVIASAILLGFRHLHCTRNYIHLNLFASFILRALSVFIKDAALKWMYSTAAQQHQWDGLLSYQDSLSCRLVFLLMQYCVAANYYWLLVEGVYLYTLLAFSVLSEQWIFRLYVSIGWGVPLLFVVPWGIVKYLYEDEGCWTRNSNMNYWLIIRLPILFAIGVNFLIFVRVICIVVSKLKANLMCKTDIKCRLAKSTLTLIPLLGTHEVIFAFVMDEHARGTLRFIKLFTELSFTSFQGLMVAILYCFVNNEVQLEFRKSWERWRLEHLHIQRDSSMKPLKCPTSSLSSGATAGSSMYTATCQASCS

On to `C[C@]1(c2ccc(Cl)cc2F)Oc2cccc(C3CCN(Cc4ncc(/C=C/C(=O)O)n4C[C@@H]4CCO4)CC3)c2O1` [Compound C-1, (E)-3-(2-((4-((S)-2-(4-chloro-2-fluorophenyl)-2-methylbenzo[d][1,3]dioxol-4-yl)piperidin-1-yl)methyl)-1-(((S)-oxetan-2-yl)methyl)-1H-imidazol-5-yl)acrylic acid], for which the EC50 worked out at 336 nM and the Emax came out at 67%.
On to `Cc1nc(CN2CCC(c3cccc4c3O[C@@](C)(c3ccc(Cl)cc3F)O4)CC2)n(C[C@@H]2CCO2)c1/C=C/C(=O)O` [Compound C-5, (E)-3-(2-((4-((S)-2-(4-chloro-2-fluorophenyl)-2-methylbenzo[d][1,3]dioxol-4-yl)piperidin-1-yl)methyl)-4-methyl-1-(((S)-oxetan-2-yl)methyl)-1H-imidazol-5-yl)acrylic acid], for which the half-maximal effective concentration (EC50) turned out to be 89 nM and the Emax is 58%.
In turn, `C[C@]1(c2ccc(Cl)cc2F)Oc2cccc(C3CCN(Cc4nc(C(F)(F)F)c(C(=O)O)n4C[C@@H]4CCO4)CC3)c2O1` [Compound C-7, 2-((4-((S)-2-(4-chloro-2-fluorophenyl)-2-methylbenzo[d][1,3]dioxol-4-yl)piperidin-1-yl)methyl)-1-(((S)-oxetan-2-yl)methyl)-4-(trifluoromethyl)-1H-imidazole-5-carboxylic acid] had an EC50 of more than 30000 nM and an Emax of 3%.
On to `C[C@]1(c2ccc(Cl)cc2F)Oc2cccc(C3CCN(Cc4nc(/C=C/C(=O)O)cn4C[C@@H]4CCO4)CC3)c2O1` [Compound C-2, (E)-3-(2-((4-((S)-2-(4-chloro-2-fluorophenyl)-2-methylbenzo[d][1,3]dioxol-4-yl)piperidin-1-yl)methyl)-1-(((S)-oxetan-2-yl)methyl)-1H-imidazol-4-yl)acrylic acid], for which the EC50 is more than 30000 nM and the Emax amounted to 5%.
